Measured values as given in ChEMBL document CHEMBL3507680, “University of Dundee, Gates Library screen for HepG2 cell viability”.

Assay: Human HepG2 cell viability assay in 384 well format
Assay type: toxicity, cell-based
Parameters: dose 125 nL, time 70.5 hour; cytotoxicity at 70.5 h: concentration not given beside the values
Details: HepG2 cells, read-out: Inhibition

Structure (SMILES) | cytotoxicity at 70.5 h [%]
CS(=O)(=O)N1CCC2(CN(C(=O)c3cccnc3)C2)C1 | -2.66
O=C(N[C@H]1CN[C@H]2CCCO[C@H]21)c1cscn1 | -4.74
Cc1nc(NC(=O)N(C)Cc2ccsc2)nn1C | -7.49
Cc1ccc(C)c(CC(=O)Nc2cccc(C(=O)N(C)C)n2)c1 | 5.58
CCc1noc(CN(CCC2CCCCC2)CC(N)=O)n1 | -14.6
Cc1ccnc(C2CN(c3ccnc(C)n3)C2)n1 | -5.49
Cc1noc(C)c1CC(=O)N1CCCC(n2ccnc2C)C1 (stereo not drawn) | -15.6
CCN(CC)C(=O)CN(C)Cc1nc2c(cnn2C)c(=O)[nH]1 | -10.6
O=C(CCNc1ncccn1)NCc1csc(Br)c1 | 11.5
O=C(CN1CC(n2cccn2)C1)NCC1(c2ccccc2)CCC1 | 13.6
CN1C(=O)c2cccc(NC(=O)c3cccc(S(C)(=O)=O)c3)c2C1=O | -4.72
O=C(c1ccc(F)cc1)N1C[C@@H]2COC[C@]2(COc2cccnc2)C1 | 14.6
c1ccc(CC2CCN(Cc3ccnc(-c4cccnc4)n3)CC2)cc1 | -3.3
O=S(=O)(N1CCOCC1)N1CCCCC1CCn1cccn1 (stereo not drawn) | 3.71
O=C(N[C@@H]1CCN(c2nccc3ccccc23)C[C@H]1O)c1cnccn1 | 9.52
Cc1noc(C)c1CNC(=O)N1CCN(CC2CC2)CC1 | -5.87
CC(Cc1c(F)cccc1F)NC(=O)CSCC(N)=O (stereo not drawn) | 12.1
CN1CCN2C[C@@H](CO)[C@H](c3ccccc3)[C@H]2C1 | -5.05
CCCN1C(=O)CC2(CCCNC2)C1=O (stereo not drawn) | -14.9
CC(=O)c1ccc(NC(=O)C(NC(=O)Nc2ccccc2)C(C)C)cc1 (stereo not drawn) | -10.8
Cc1cnn(CC2CCCN2CCCS(C)(=O)=O)c1 (stereo not drawn) | -2.25

Structure (SMILES) | cytotoxicity at 70.5 h [%]
O=C(C1CCOCC1)N1C[C@@H]2[C@@H](C1)OCC(=O)N2CC1CC1 | -6.04
Cc1noc(C(C)C)c1C(=O)NCC(c1cccs1)N(C)C (stereo not drawn) | -8.63
CN(Cc1ccccn1)C1CCCN(c2cccnn2)C1 (stereo not drawn) | 3.01
COCc1nc(C(=O)NS(=O)(=O)c2ccc(C)c(C)c2)cs1 | 25.8
Cc1ccc(C(=O)N2CCc3c(CNc4ncccn4)cncc3C2)o1 | -10.9
O=C(CC1CCCC1)N1CCCC(c2n[nH]c3nccnc23)C1 (stereo not drawn) | -0.397
Nc1nccc(C2CCN(c3cnccn3)C2)n1 (stereo not drawn) | 21.1
CCCn1cc(C(=O)N[C@H]2CC[C@H](n3cnnc3)CC2)c(C)n1 | 0.742
O=C(NCC1CCS(=O)(=O)C1)c1cccc(CN2CCCC2)c1 (stereo not drawn) | -16
CC(=O)Nc1ncc(S(=O)(=O)N2CCOCC2)s1 | -1.73
O=C(NCCNc1cnccn1)N1CCc2ccccc2C1 | -13.1
CCN1CCn2c(C)cnc2C12CCN(C(=O)COC)CC2 | 25
Cc1c(NC(=O)N(C)CCO)cccc1OC1CCCC1 | -7.3
CC(C)(O)CCc1cccc(C(=O)N2CCC[C@H]2C(N)=O)c1 | 29.2
CC(C)c1cc(C(=O)N2CCC3(CC2)c2ccccc2[C@@H](N)[C@@H]3O)cs1 | -10.7
Cc1nc(C2CCN(CC(=O)NC3CC3)CC2)cc(N2CCOCC2)n1 | -0.642
NC(=O)c1cc2c(nc1CCOc1ccc(F)cc1)CCC2 | -2.31
COc1ncnc2c1CCN(C(=O)NCc1cccc(F)c1)CC2 | -6.04
COC(=O)N1CCC(NC(=O)c2cc(S(N)(=O)=O)ccc2C)CC1 | 2.43
Cc1ccc(-c2nnc(CNCCn3cccn3)o2)cc1 | 13.9
CCC[C@H]1CN(Cc2cscn2)C[C@@H]1NC(=O)C1(COC)CCC1 | -4.5

Structure (SMILES) | cytotoxicity at 70.5 h [%]
CCc1ccc(CNCC2CCN(CCO)CC2)cc1 | 16.5
CC(OCC1CC1)C(=O)NCc1ccc(Cn2ccnc2)cc1 (stereo not drawn) | -6.63
CN1CC(=O)N(c2cnn(C)c2)CC12CCN(CC1CC1)C2 (stereo not drawn) | -2.29
O=S1(=O)C[C@@H]2[C@H](C1)N(Cc1cc(Cl)cc(Cl)c1)CCN2CCO | -1.4
CN(C)c1ccc(CC(=O)N2CCOCC(O)C2)cc1 (stereo not drawn) | 22.5
CCC1(CC)Cc2ccccc2-c2nc(NCCCO)[nH]c(=O)c21 | -14.8
c1ccc(Cc2nc(CNC3CCC4(CCNCC4)CC3)no2)cc1 | -4.21
O=C(c1cc[nH]n1)N1CCCC1c1cncc(CN2CCOCC2)n1 (stereo not drawn) | -4.87
Fc1cc(Cl)cnc1N1CCCC(c2nccn2Cc2ccncc2)C1 (stereo not drawn) | -14
CCOc1cc(C)ccc1NC(=O)N(C)Cc1cnn(C)c1 | -3.49
O=C(O)c1cccnc1CN(Cc1ccsc1)C1CC1 | -6.7
CNS(=O)(=O)CC(=O)NC(c1cc(C)sc1C)C(C)C (stereo not drawn) | 2.55
Cc1ccc2c(n1)N(CCn1cccn1)CCN(C(=O)NC1CC1)C2 | -10.7
CCN1CCCC(CNC(=O)C2(c3cc(C)cc(C)c3)CCC2)C1 (stereo not drawn) | 28.2
CC(C)CN1C(=O)CO[C@@H]2CNC[C@H]21 | -10.3
OCC1(CC2CC2)CCCN(Cc2ccc(C(F)(F)F)nc2)C1 (stereo not drawn) | -6.45
CSCC(=O)N1CCCN(Cc2cscn2)CC1 | -2.64
Cn1ccnc1CN1CCC2(CC1)CN(c1ccccc1)C(=O)CO2 | 4.73
O=C(COCC(=O)N(c1ccccc1)c1ccccc1)N1CCOCC1 | -5.79
CN1CCN(c2ccc(NCc3ccc([S+](C)[O-])cc3)cn2)CC1 (stereo not drawn) | -0.416
CC(=O)N1CCC(c2cncc(N3CCCC(O)C3)n2)CC1 (stereo not drawn) | -4.12

Structure (SMILES) | cytotoxicity at 70.5 h [%]
CN(CCO)C(=O)Nc1ccn(-c2cccc(C(F)(F)F)c2)n1 | -2.71
CN1C(=O)C2(CCN(Cc3cccnc3)CC2)c2cccc(F)c21 | -3.56
O=C(NCCc1ccc(Cl)s1)N1CCS(=O)(=O)CC1 | -3.08
COCC(=O)N1C[C@@H](CN2CCCN(C)CC2)[C@@H](CO)C1 | -4.72
Cc1ccc2nc(C)cc(NCCNS(=O)(=O)c3cccnc3)c2c1 | -2.02
CCCc1nnc(N2CCC(N3CCN(CCO)CC3)CC2)o1 | -5.69
CC(C)CC(NC(=O)c1ccc[nH]1)C(=O)N1CCC(CO)CC1 (stereo not drawn) | -11.2
CCOc1ccc2nc(CN3CCOC(CN)C3)ccc2c1 (stereo not drawn) | -3.44
c1ccc(-c2cnn3cc(CN4CCC5(CCO5)CC4)cnc23)cc1 | 1.13
Cc1nnc2n1CCN(Cc1nc3c(F)cccc3[nH]1)C2 | -9.16
CCOC(=O)N1CCNC(c2cccs2)C1 (stereo not drawn) | 21.8
Cc1ccccc1C(CC(=O)NCC(N)=O)c1ccccc1 (stereo not drawn) | -5.12
COCC(=O)N1CCc2c(CNS(C)(=O)=O)n[nH]c2C1 | -5.36
O=C(COCc1ccccc1)Nc1ccccn1 | 0.318
COc1ccc(O)c(C(=O)NCC2CCCN(C3CCOCC3)C2)c1 (stereo not drawn) | -10.8
O=c1[nH]c2c(c(=O)n1C1CCCCC1)CCC2Nc1ccccc1Cl (stereo not drawn) | 21.6
O=C(Nc1ccc(F)cc1)C1CCN(Cc2noc(C3CC3)n2)CC1 | -7.96
CCN(CC)Cc1ccc(C(=O)N2CCCC2Cn2cccn2)o1 (stereo not drawn) | -1.33
Cc1ccc(C(=O)Nc2cn[nH]c2)cn1 | -1.81
COCCN(CCOC)C(=O)NC1CCCCC1 | -4.8
